# Data: PMC7265341, “Quantifying CDK inhibitor selectivity in live cells” (Nature Communications, 2020)
# Like-named read-outs stand apart in the source and are kept apart here.
# Columns and labels:
# CDK4/Cyclin D1 = CDK4/Cyclin D1 (Homo sapiens, UniProt P11802); test: NanoBRET live-cell target engagement, NanoLuc-CDK4/Cyclin D1 in HEK-293; assay type: binding; conditions: CDK4/D1; for IC50: read-out: IC50
# CDK11B/Cyclin L2 = CDK11B/Cyclin L2 (Homo sapiens, UniProt P21127); test: NanoBRET live-cell target engagement, CDK11B-NanoLuc/Cyclin L2 in HEK-293; assay type: binding; conditions: CDK11b/L2
# CDK20/Cyclin H = CDK20/Cyclin H (Homo sapiens, UniProt Q8IZL9); test: NanoBRET live-cell target engagement, NanoLuc-CDK20/Cyclin H in HEK-293; assay type: binding; conditions: CDK20/H
# CDK13/Cyclin K = CDK13/Cyclin K (Homo sapiens, UniProt Q14004); test: NanoBRET live-cell target engagement, CDK13-NanoLuc/Cyclin K in HEK-293; assay type: binding; conditions: CDK13/K
# CDK16/Cyclin Y = CDK16/Cyclin Y (Homo sapiens, UniProt Q00536); test: NanoBRET live-cell target engagement, CDK16-NanoLuc/Cyclin Y in HEK-293; assay type: binding; conditions: CDK16/Y
# CDK6/Cyclin D1 = CDK6/Cyclin D1 (Homo sapiens, UniProt Q00534); test: NanoBRET live-cell target engagement, NanoLuc-CDK6/Cyclin D1 in HEK-293; assay type: binding; conditions: CDK6/D1; for IC50: read-out: IC50
# CDK12/Cyclin K = CDK12/Cyclin K (Homo sapiens, UniProt Q9NYV4); test: NanoBRET live-cell target engagement, CDK12-NanoLuc/Cyclin K in HEK-293; assay type: binding; conditions: CDK12/K
# CDK18/Cyclin Y = CDK18/Cyclin Y (Homo sapiens, UniProt Q07002); test: NanoBRET live-cell target engagement, CDK18-NanoLuc/Cyclin Y in HEK-293; assay type: binding; conditions: CDK18/Y
# CDK15/Cyclin Y = CDK15/Cyclin Y (Homo sapiens, UniProt Q96Q40); test: NanoBRET live-cell target engagement, NanoLuc-CDK15/Cyclin Y in HEK-293; assay type: binding; conditions: CDK15/Y
# CDK8/Cyclin C = CDK8/Cyclin C (Homo sapiens, UniProt P49336); test: NanoBRET live-cell target engagement, NanoLuc-CDK8/Cyclin C in HEK-293; assay type: binding; conditions: CDK8/C
# CDK9/Cyclin K = CDK9/Cyclin K (Homo sapiens, UniProt P50750); test: NanoBRET live-cell target engagement, NanoLuc-CDK9/Cyclin K in HEK-293; assay type: binding; conditions: CDK9/K
# CDK2/Cyclin E1 = CDK2/Cyclin E1 (Homo sapiens, UniProt P24941); test: NanoBRET live-cell target engagement, CDK2-NanoLuc/Cyclin E1 in HEK-293; assay type: binding; conditions: CDK2/E1
# CDK19/Cyclin C = CDK19/Cyclin C (Homo sapiens, UniProt Q9BWU1); test: NanoBRET live-cell target engagement, NanoLuc-CDK19/Cyclin C in HEK-293; conditions: CDK19/C
# CDK1/Cyclin E1 = CDK1/Cyclin E1 (Homo sapiens, UniProt P06493); test: NanoBRET live-cell target engagement, CDK1-NanoLuc/Cyclin E1 in HEK-293; assay type: binding; conditions: CDK1/E1
# CDK3/Cyclin E1 = CDK3/Cyclin E1 (Homo sapiens, UniProt Q00526); test: NanoBRET live-cell target engagement, CDK3-NanoLuc/Cyclin E1 in HEK-293; assay type: binding; conditions: CDK3/E1
# CDK10/Cyclin L2 = CDK10/Cyclin L2 (Homo sapiens, UniProt Q15131); test: NanoBRET live-cell target engagement, CDK10-NanoLuc/Cyclin L2 in HEK-293; conditions: CDK10/L2
# CDK5/CDK5R1 = CDK5/CDK5R1 (Homo sapiens, UniProt Q00535); test: NanoBRET live-cell target engagement, CDK5-NanoLuc/CDK5R1 in HEK-293; assay type: binding; conditions: CDK5/CDK5R1
# CDK17/Cyclin Y = CDK17/Cyclin Y (Homo sapiens, UniProt Q00537); test: NanoBRET live-cell target engagement, CDK17-NanoLuc/Cyclin Y in HEK-293; assay type: binding; conditions: CDK17/Y
# CDK11A/Cyclin L2 = target: T1, CDK11A/Cyclin L2 (Homo sapiens, UniProt Q9UQ88); test: NanoBRET live-cell target engagement, CDK11A-NanoLuc/Cyclin L2 in HEK-293; assay type: binding; conditions: CDK11a/L2
# T1 sequence (Q9UQ88 1-783): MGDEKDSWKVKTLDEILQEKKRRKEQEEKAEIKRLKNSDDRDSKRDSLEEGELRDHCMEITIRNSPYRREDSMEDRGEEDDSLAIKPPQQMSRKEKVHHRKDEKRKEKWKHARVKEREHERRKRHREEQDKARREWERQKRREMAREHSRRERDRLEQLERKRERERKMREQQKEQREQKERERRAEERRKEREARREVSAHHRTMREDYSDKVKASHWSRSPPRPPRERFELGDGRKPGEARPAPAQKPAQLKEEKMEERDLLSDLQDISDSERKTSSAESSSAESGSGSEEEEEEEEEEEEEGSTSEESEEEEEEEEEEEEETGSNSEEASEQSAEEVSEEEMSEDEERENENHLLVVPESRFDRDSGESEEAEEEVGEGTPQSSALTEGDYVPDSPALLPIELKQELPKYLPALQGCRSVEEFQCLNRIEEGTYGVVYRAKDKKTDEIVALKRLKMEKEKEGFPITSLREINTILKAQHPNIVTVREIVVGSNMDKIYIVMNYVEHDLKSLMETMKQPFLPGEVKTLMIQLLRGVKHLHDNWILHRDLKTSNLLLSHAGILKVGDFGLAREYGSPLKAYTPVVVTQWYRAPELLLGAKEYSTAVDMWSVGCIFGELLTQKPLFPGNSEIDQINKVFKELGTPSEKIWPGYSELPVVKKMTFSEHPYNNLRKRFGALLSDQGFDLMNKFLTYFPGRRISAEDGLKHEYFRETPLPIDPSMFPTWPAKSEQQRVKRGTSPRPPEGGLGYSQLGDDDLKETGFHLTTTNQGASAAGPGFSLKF
# CDK8/Cyclin C, sequence (P49336 whole entry): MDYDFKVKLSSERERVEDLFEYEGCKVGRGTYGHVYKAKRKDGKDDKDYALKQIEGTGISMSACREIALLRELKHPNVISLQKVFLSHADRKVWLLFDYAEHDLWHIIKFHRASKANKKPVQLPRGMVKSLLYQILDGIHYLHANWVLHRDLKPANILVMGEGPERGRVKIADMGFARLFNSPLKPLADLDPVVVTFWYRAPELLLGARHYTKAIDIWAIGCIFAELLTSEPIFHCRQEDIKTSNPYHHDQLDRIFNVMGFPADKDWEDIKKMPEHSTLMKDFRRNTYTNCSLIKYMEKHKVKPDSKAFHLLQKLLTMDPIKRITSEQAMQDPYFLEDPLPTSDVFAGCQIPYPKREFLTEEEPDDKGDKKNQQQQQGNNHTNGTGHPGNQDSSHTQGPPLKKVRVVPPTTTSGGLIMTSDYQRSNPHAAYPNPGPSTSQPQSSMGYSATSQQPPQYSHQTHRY
# CDK8/Cyclin C, sequence (P24863 whole entry partner): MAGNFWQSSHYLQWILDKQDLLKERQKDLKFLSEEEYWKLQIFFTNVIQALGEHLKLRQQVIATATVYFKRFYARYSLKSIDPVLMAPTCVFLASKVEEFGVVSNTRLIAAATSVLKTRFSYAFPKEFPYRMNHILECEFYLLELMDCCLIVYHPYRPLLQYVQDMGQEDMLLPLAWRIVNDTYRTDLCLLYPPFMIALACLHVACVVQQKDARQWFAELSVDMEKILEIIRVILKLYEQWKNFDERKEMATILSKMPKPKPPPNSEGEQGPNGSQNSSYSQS
# CDK6/Cyclin D1, sequence (Q00534 whole entry): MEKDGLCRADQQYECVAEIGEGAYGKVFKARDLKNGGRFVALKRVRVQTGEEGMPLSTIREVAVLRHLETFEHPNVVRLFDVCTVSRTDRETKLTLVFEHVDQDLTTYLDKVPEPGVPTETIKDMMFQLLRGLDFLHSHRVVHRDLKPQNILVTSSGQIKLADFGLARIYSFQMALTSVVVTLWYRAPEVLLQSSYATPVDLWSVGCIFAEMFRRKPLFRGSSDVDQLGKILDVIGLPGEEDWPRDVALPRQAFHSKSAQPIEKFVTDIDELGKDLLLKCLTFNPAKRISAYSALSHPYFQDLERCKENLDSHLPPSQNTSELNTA
# CDK6/Cyclin D1, sequence (P24385 whole entry partner): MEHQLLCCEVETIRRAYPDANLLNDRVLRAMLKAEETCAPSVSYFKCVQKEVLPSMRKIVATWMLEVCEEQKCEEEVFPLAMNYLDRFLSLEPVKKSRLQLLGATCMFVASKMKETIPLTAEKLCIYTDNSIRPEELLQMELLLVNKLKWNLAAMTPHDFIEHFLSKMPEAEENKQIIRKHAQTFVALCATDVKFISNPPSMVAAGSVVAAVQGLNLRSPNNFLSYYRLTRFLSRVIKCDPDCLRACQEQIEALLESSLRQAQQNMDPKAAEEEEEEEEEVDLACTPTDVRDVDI
# CDK1/Cyclin E1, sequence (P06493 whole entry): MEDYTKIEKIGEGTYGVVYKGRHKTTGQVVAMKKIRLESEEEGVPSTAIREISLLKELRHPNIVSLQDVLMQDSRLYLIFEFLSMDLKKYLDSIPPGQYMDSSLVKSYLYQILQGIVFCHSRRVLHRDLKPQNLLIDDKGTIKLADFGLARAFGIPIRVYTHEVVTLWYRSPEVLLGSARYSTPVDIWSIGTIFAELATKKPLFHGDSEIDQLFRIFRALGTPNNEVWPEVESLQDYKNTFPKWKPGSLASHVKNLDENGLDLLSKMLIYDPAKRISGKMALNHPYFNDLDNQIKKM
# CDK1/Cyclin E1, sequence (P24864 whole entry partner): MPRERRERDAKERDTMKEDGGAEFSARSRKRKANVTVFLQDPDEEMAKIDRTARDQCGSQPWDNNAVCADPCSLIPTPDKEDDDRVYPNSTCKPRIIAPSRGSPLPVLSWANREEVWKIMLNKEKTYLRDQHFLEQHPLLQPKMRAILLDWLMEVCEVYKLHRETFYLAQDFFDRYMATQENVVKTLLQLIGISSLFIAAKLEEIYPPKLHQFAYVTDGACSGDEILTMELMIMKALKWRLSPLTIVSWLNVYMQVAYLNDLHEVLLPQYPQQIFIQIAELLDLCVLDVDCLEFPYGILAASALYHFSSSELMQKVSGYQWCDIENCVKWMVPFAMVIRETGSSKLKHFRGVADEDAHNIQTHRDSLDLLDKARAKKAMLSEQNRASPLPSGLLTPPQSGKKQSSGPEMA
# CDK9/Cyclin K, sequence (P50750 whole entry): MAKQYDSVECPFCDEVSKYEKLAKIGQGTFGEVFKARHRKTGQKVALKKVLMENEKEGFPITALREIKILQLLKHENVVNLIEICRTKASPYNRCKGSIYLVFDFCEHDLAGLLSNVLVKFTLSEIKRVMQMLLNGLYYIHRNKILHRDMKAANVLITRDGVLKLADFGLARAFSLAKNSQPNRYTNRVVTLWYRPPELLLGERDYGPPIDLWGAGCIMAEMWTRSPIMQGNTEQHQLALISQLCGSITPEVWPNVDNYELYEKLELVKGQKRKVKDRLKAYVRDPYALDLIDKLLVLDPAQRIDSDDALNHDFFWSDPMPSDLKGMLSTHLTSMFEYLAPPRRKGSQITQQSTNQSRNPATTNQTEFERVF
# CDK9/Cyclin K, sequence (O75909 whole entry partner): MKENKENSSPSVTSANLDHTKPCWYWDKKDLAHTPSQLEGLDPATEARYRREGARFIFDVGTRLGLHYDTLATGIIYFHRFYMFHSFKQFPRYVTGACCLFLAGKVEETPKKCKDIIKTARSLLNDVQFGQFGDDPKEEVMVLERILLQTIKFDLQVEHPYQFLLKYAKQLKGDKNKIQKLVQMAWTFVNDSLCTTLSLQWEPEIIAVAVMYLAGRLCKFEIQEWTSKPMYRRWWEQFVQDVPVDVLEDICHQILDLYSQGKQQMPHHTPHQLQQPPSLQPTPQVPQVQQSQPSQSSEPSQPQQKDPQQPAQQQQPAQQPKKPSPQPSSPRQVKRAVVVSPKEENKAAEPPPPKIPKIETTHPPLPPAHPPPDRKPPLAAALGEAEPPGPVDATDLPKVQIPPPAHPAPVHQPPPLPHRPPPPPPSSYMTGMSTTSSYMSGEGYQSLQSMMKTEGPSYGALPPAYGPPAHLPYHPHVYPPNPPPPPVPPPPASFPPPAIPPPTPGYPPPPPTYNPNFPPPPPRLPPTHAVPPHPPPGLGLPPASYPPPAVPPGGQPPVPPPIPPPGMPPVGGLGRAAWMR
# CDK15/Cyclin Y, sequence (Q96Q40 whole entry): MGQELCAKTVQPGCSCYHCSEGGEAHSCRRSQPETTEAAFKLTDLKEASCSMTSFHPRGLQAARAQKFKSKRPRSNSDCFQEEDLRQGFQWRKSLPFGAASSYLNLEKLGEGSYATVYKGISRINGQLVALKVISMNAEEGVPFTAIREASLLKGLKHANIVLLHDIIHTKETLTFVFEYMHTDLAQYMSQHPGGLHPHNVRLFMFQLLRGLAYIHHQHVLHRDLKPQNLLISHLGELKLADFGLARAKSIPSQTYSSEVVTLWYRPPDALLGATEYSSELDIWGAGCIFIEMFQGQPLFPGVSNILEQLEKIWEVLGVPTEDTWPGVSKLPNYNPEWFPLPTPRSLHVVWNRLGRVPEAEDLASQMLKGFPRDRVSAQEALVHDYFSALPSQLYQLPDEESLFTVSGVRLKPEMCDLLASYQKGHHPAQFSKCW
# CDK15/Cyclin Y, sequence (Q8ND76 whole entry partner): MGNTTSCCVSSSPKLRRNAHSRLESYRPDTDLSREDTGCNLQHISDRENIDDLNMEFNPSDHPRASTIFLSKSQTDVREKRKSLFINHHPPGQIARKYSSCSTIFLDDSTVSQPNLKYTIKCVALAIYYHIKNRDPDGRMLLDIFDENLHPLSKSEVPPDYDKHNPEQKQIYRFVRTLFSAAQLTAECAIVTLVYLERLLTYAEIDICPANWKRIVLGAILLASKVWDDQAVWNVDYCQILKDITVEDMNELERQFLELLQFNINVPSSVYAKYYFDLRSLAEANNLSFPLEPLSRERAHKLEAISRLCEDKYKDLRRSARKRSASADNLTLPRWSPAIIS
# CDK19/Cyclin C, sequence (Q9BWU1 whole entry): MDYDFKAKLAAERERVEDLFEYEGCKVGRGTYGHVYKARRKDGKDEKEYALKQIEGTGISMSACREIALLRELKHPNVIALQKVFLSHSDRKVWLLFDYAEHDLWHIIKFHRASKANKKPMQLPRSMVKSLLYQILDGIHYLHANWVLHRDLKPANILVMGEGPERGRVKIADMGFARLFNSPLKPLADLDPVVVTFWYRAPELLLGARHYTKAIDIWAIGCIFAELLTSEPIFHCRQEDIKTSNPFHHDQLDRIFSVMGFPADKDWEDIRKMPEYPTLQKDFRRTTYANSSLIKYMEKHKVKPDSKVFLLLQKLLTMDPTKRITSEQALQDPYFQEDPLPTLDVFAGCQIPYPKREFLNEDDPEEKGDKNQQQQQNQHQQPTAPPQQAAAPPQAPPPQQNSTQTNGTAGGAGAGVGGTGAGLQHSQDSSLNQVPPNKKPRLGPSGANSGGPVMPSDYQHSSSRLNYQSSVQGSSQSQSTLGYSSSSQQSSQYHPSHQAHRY
# CDK19/Cyclin C, sequence (P24863 whole entry partner): as the sequence (P24863 whole entry partner) above
# CDK10/Cyclin L2, sequence (Q15131 whole entry): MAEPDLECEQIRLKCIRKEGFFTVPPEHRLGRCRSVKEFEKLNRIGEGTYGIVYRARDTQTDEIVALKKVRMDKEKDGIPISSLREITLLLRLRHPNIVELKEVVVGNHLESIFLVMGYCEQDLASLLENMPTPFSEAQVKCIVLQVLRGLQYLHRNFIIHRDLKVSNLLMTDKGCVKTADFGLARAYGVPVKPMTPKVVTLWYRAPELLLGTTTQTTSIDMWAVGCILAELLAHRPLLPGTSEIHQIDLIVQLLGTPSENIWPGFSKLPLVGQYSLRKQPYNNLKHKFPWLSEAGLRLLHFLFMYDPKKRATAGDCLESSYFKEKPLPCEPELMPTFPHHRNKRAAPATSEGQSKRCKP
smiles,measurement,setting,value
CN1CCC(c2c(O)cc(O)c3c(=O)cc(-c4ccccc4Cl)oc23)C1CO (stereo not drawn) [P276-00],Inhibition at 10µM (%),CDK4/Cyclin D1; average,80.8%
same,IC50,CDK4/Cyclin D1; average (± SEM where n=3),400 ± 100 nM
same,Inhibition at 10µM (%),CDK4/Cyclin D1; experiment 1,79.0%
same,IC50,CDK4/Cyclin D1; experiment 1,690 nM
same,Inhibition at 10µM (%),CDK4/Cyclin D1; experiment 2,82.6%
same,IC50,CDK4/Cyclin D1; experiment 2,200 nM
same,IC50,CDK4/Cyclin D1; experiment 3,301 nM
same,Inhibition at 10µM (%),CDK11B/Cyclin L2; average,58.5%
same,Inhibition at 10µM (%),CDK11B/Cyclin L2; experiment 1,56.7%
same,Inhibition at 10µM (%),CDK11B/Cyclin L2; experiment 2,60.4%
same,Inhibition at 10µM (%),CDK20/Cyclin H; experiment 1,-0.6%
same,Inhibition at 10µM (%),CDK20/Cyclin H; experiment 2,-6.9%
same,Inhibition at 10µM (%),CDK13/Cyclin K; average,11.2%
same,Inhibition at 10µM (%),CDK13/Cyclin K; experiment 1,12.5%
same,Inhibition at 10µM (%),CDK13/Cyclin K; experiment 2,9.8%
same,Inhibition at 10µM (%),CDK16/Cyclin Y; experiment 1,61.8%
same,Inhibition at 10µM (%),CDK16/Cyclin Y; experiment 2,61.2%
same,Inhibition at 10µM (%),CDK6/Cyclin D1; average,83.0%
same,IC50,CDK6/Cyclin D1; average (± SEM where n=3),500 ± 100 nM
same,Inhibition at 10µM (%),CDK6/Cyclin D1; experiment 1,78.3%
same,IC50,CDK6/Cyclin D1; experiment 1,550 nM
same,Inhibition at 10µM (%),CDK6/Cyclin D1; experiment 2,87.7%
same,IC50,CDK6/Cyclin D1; experiment 2,220 nM
same,IC50,CDK6/Cyclin D1; experiment 3,659 nM
same,Inhibition at 10µM (%),CDK12/Cyclin K; average,3.3%
same,Inhibition at 10µM (%),CDK12/Cyclin K; experiment 1,2.5%
same,Inhibition at 10µM (%),CDK12/Cyclin K; experiment 2,4.1%
same,Inhibition at 10µM (%),CDK18/Cyclin Y; average,57.3%
same,Inhibition at 10µM (%),CDK18/Cyclin Y; experiment 1,55.4%
same,Inhibition at 10µM (%),CDK18/Cyclin Y; experiment 2,59.3%
same,Inhibition at 10µM (%),CDK15/Cyclin Y; average,28.5%
same,Inhibition at 10µM (%),CDK15/Cyclin Y; experiment 1,33.3%
same,Inhibition at 10µM (%),CDK15/Cyclin Y; experiment 2,23.7%
same,Inhibition at 10µM (%),CDK8/Cyclin C; average,79.0%
same,Inhibition at 10µM (%),CDK8/Cyclin C; experiment 1,82.7%
same,Inhibition at 10µM (%),CDK8/Cyclin C; experiment 2,75.3%
same,Inhibition at 10µM (%),CDK9/Cyclin K; average,96.7%
same,Inhibition at 10µM (%),CDK9/Cyclin K; experiment 1,94.9%
same,Inhibition at 10µM (%),CDK9/Cyclin K; experiment 2,98.4%
same,Inhibition at 10µM (%),CDK2/Cyclin E1; average,22.7%
same,Inhibition at 10µM (%),CDK2/Cyclin E1; experiment 1,16.7%
same,Inhibition at 10µM (%),CDK2/Cyclin E1; experiment 2,28.7%
same,Inhibition at 10µM (%),CDK19/Cyclin C; average,72.1%
same,Inhibition at 10µM (%),CDK19/Cyclin C; experiment 1,76.3%
same,Inhibition at 10µM (%),CDK19/Cyclin C; experiment 2,67.9%
same,Inhibition at 10µM (%),CDK1/Cyclin E1; average,41.0%
same,Inhibition at 10µM (%),CDK1/Cyclin E1; experiment 1,45.9%
same,Inhibition at 10µM (%),CDK1/Cyclin E1; experiment 2,36.2%
same,Inhibition at 10µM (%),CDK3/Cyclin E1; average,51.8%
same,Inhibition at 10µM (%),CDK3/Cyclin E1; experiment 1,52.6%
same,Inhibition at 10µM (%),CDK3/Cyclin E1; experiment 2,51.0%
same,Inhibition at 10µM (%),CDK10/Cyclin L2; average,11.6%
same,Inhibition at 10µM (%),CDK10/Cyclin L2; experiment 1,10.1%
same,Inhibition at 10µM (%),CDK10/Cyclin L2; experiment 2,13.1%
same,Inhibition at 10µM (%),CDK5/CDK5R1; average,26.1%
same,Inhibition at 10µM (%),CDK5/CDK5R1; experiment 1,31.1%
same,Inhibition at 10µM (%),CDK5/CDK5R1; experiment 2,21.1%
same,Inhibition at 10µM (%),CDK17/Cyclin Y; average,71.1%
same,Inhibition at 10µM (%),CDK17/Cyclin Y; experiment 1,75.5%
same,Inhibition at 10µM (%),CDK17/Cyclin Y; experiment 2,66.7%
same,Inhibition at 10µM (%),CDK11A/Cyclin L2; average,34.1%
same,Inhibition at 10µM (%),CDK11A/Cyclin L2; experiment 1,43.4%
same,Inhibition at 10µM (%),CDK11A/Cyclin L2; experiment 2,24.8%
